According to ChEMBL document CHEMBL1147631, “Aminomethylpyrimidines as novel DPP-IV inhibitors: a 10(5)-fold activity increase by optimization of aromatic substituents” (Bioorg Med Chem Lett, 2004):

Biological target: Dipeptidyl peptidase 4 (Homo sapiens, UniProt P27487)
Experiment: Inhibitory activity against Dipeptidylpeptidase IV mediated cleavage of Ala-Pro-7-amido-4-tri-fluoromethylcoumarin in a fluorogenic assay
Format: functional

Sequence of Dipeptidyl peptidase 4 (P27487 whole entry): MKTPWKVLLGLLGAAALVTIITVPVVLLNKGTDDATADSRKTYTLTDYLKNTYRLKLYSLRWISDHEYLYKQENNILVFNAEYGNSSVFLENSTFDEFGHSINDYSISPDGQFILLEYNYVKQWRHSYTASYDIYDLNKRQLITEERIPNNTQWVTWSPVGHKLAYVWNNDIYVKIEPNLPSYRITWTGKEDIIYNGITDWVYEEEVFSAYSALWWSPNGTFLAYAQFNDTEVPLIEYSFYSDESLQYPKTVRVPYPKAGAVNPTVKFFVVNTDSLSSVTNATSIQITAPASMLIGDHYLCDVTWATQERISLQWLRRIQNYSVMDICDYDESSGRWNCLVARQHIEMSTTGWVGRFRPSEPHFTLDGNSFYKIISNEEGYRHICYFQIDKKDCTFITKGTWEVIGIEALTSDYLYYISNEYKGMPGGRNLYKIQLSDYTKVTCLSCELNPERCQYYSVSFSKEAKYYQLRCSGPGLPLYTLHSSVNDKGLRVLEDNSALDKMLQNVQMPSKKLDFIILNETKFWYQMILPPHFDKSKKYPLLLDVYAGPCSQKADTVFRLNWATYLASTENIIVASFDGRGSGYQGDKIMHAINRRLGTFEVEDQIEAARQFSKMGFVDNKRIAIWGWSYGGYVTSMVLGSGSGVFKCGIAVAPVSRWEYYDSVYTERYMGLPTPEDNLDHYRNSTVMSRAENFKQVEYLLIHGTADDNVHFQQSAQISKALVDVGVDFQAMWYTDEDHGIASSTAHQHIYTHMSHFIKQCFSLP

Point of comparison: `Cc1ccccc1-c1nc(-c2ccccc2)nc(N)c1CN`, IC50 1500 nM. Against it:
- NCc1c(N)nc(-c2ccccc2)nc1-c1ccc(F)cc1 — 12-fold higher, 18000 nM
- Cc1cccc(-c2nc(-c3ccccc3)nc(N)c2CN)c1 — 13-fold higher, 20000 nM
- NCc1c(N)nc(-c2ccccc2)nc1-c1ccccc1F — 9.3-fold higher, 14000 nM
- NCc1c(N)nc(-c2ccccc2)nc1-c1ccccc1C(F)(F)F — 9.3-fold higher, 14000 nM
- NCc1c(N)nc(-c2ccccc2)nc1-c1cccc(C(F)(F)F)c1 — 110-fold higher, 170000 nM
- NCc1c(N)nc(-c2ccccc2)nc1-c1ccccc1 — 28-fold higher, 42000 nM
- COc1cccc(-c2nc(-c3ccccc3)nc(N)c2CN)c1 — 53-fold higher, 80000 nM
- NCc1c(N)nc(-c2ccccc2)nc1-c1ccc(Cl)cc1 — within 1.5-fold, 1400 nM
- NCc1c(N)nc(-c2ccc(C(F)(F)F)cc2)nc1-c1ccc(Cl)cc1Cl — 8.3-fold lower, 180 nM
- COc1ccccc1-c1nc(N)c(CN)c(-c2ccc(Cl)cc2Cl)n1 — 4.3-fold lower, 350 nM
- NCc1c(N)nc(-c2ccc(F)cc2)nc1-c1ccc(Cl)cc1Cl — 7500-fold lower, 0.2 nM
- Cc1ccc(-c2nc(N)c(CN)c(-c3ccc(Cl)cc3Cl)n2)cc1 — 17-fold lower, 90 nM
- NCc1c(N)nc(-c2ccccc2)nc1-c1ccc(C(F)(F)F)cc1 — within 1.5-fold, 1100 nM
- Cc1cccc(-c2nc(N)c(CN)c(-c3ccc(Cl)cc3Cl)n2)c1 — 1700-fold lower, 0.9 nM
- NCc1c(N)nc(-c2ccccc2)nc1-c1cccc(F)c1 — 27-fold higher, 40000 nM
- NCc1c(N)nc(-c2ccccc2)nc1-c1ccc(Cl)cc1Cl — 150-fold lower, 10 nM
- COc1ccc(-c2nc(-c3ccccc3)nc(N)c2CN)cc1 — 31-fold higher, 47000 nM
- NCc1c(N)nc(-c2ccccc2)nc1-c1ccccc1Cl — 1.7-fold higher, 2500 nM
- COc1ccccc1-c1nc(-c2ccccc2)nc(N)c1CN — the same, 1500 nM
- COc1ccc(-c2nc(N)c(CN)c(-c3ccc(Cl)cc3Cl)n2)cc1 — 15-fold lower, 100 nM
- NCc1c(N)nc(-c2ccccc2F)nc1-c1ccc(Cl)cc1Cl — 32-fold lower, 47 nM
- Cc1ccccc1-c1nc(N)c(CN)c(-c2ccc(Cl)cc2Cl)n1 — within 1.5-fold, 1750 nM
- NCc1c(N)nc(-c2cccc(C(F)(F)F)c2)nc1-c1ccc(Cl)cc1Cl — 12-fold lower, 130 nM
- NCc1c(N)nc(-c2cccc(Cl)c2)nc1-c1ccc(Cl)cc1Cl — 6.2-fold lower, 240 nM
- NCc1c(N)nc(-c2ccc(Cl)cc2)nc1-c1ccc(Cl)cc1Cl — 28-fold lower, 53 nM
- COc1cccc(-c2nc(N)c(CN)c(-c3ccc(Cl)cc3Cl)n2)c1 — 4.4-fold lower, 340 nM
- NCc1c(N)nc(-c2ccc(F)c(F)c2)nc1-c1ccc(Cl)cc1Cl — 500-fold lower, 3 nM
- Cc1ccc(-c2nc(-c3ccccc3)nc(N)c2CN)cc1 — 1.5-fold lower, 1000 nM
- NCc1c(N)nc(-c2ccccc2)nc1-c1cccc(Cl)c1 — 21-fold higher, 31000 nM
